CCCSc1ccc2nc(NC(=O)OC)[nH]c2c1
solubility (mole fraction)
Settings	278.15 K	283.15 K	288.15 K	293.15 K	298.15 K	303.15 K	308.15 K	313.15 K	318.15 K	323.15 K
in acetone	0.00151	0.0018	0.00213	0.00254	0.00297	0.00344	0.00402	0.00463	0.00535	0.00613
in isopropanol	0.000106	0.00013	0.000158	0.000192	0.000229	0.000276	0.00033	0.000388	0.000453	0.000532
in methanol	8.85e-05	0.000109	0.000132	0.000159	0.000193	0.00023	0.000273	0.000327	0.000381	0.000448
in water	1.59e-07	2.16e-07	2.9e-07	3.99e-07	5.31e-07	6.93e-07	9.18e-07	1.19e-06	1.56e-06	1.98e-06

Source: BigSolDB 2.1
